Assay results published in BindingDB's records for PubMed 3549712 (University of Chicago, 1987).

Target: Trp operon repressor (Escherichia coli (strain K12), UniProt P0A881)
Test: Binding Assay
Source text: Binding assay of L-trptophan and analogues to trp aporepressor

Compound | Kd [µM]
c1ccc2[nH]ccc2c1 | 25.1
Cn1cc(CC(N)C(=O)O)c2ccccc21 [1-Methyl-L-tryptophan, 8] | 26.4
O=C(O)/C=C/c1c[nH]c2ccccc12 [3-Beta-Indole-acrylic acid (Tran), 1] | 0.516
NC(Cc1c[nH]c2ccc(O)cc12)C(=O)O [5-Hydroxy-L-tryptophan, 22] | 2840
COc1ccc2[nH]cc(CC(N)C(=O)O)c2c1 [5-Methoxyu-L-tryptophan, 11] | 30.7
Cc1ccc2[nH]cc(CC(N)C(=O)O)c2c1 [5-Methyl-L-tryptophan, 2] | 3.25
Cc1ccc2[nH]cc(CCN)c2c1 [5-Methyl-tryptamine, 10] | 28.8
NC(Cc1c[nH]c2cc([N+](=O)[O-])ccc12)C(=O)O [6-Nitro-L-tryptophan, 17] | 75.6
NC(Cc1c[nH]c2ncccc12)C(=O)O [7-Aza-L-tryptophan, 21] | 466
O=C(O)Cc1c[nH]c2ccccc12 [Indole-3-acetic acid, 16] | 72.9
O=C(O)CCCc1c[nH]c2ccccc12 [Indole-3-butyric acid, 3] | 5.51
O=C(O)CCc1c[nH]c2ccccc12 [Indole-3-propionic acid, 4] | 9.74
c1ccc2c(c1)CCN2 [Indoline, 19] | 174
O=C(O)C(O)Cc1c[nH]c2ccccc12 [L-Indole-3-lactic acid, 13] | 35.2
NC(Cc1ccccc1)C(=O)O [L-Phenylalanine, 23] | > 3000
COC(=O)C(N)Cc1c[nH]c2ccccc12 [L-Tryptophan methyl ester, 14] | 37.1
NC(=O)C(N)Cc1c[nH]c2ccccc12 [L-Tryptophanamide, 9] | 27.7
O=CNC(Cc1c[nH]c2ccccc12)C(=O)O [N-Formyl-L-tryptophan, 18] | 117
NCCc1c[nH]c2ccccc12 [Tryptamine, 15] | 41.1
OCCc1c[nH]c2ccccc12 [Tryptaphol, 6] | 23.3
